In US11780830B2, “Triazolone derivatives or salts thereof and pharmaceutical compositions comprising the same” (YUHAN CORPORATION, priority 2018, dated 2023):
Counter-ions that a name gives are not always drawn.

Legend:
Format in all cases: biochemical
[1] = biological target: T1, recombinant human MAO-A (monoamine oxidase-A) (Homo sapiens, UniProt P21397); experiment: Activity on recombinant human MAO-A, method similar to the VAP-1 assay; details: substrate 0.5 mM tyramine; read-out: Inhibitory Activity (IC50, nM) MAO-A
T1 construct: purchased Sigma-Aldrich
T1 sequence (P21397 1-527): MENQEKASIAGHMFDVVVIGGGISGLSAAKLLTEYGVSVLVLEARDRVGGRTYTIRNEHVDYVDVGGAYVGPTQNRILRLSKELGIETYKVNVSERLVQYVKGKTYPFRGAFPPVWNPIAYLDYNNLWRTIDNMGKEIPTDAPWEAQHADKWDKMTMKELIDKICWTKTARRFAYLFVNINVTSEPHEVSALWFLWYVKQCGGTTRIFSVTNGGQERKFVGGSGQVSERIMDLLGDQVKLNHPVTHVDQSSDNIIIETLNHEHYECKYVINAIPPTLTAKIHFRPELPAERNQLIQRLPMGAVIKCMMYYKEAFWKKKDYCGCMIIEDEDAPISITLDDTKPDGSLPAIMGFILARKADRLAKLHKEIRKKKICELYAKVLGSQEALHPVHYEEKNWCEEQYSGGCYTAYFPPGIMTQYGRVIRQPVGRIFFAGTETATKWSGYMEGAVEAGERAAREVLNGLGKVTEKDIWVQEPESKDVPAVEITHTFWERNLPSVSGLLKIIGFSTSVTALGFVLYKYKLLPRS
Procedure: (§1) The compounds according to the present technology were evaluated in terms of activity on recombinant human VAP-1 (R&D systems) by measuring the level of hydrogen peroxide in horseradish peroxidase (HRP)-coupled reaction using Amplex Red Hydrogen Peroxide Assay Kit (Molecular Probes, Invitrogen, USA). The experiment was carried out at room temperature using benzylamine as a substrate. In the HRP-coupled reaction, hydrogen peroxide oxidation of 10-acetyl-3,7-dihydroxyphenoxazine (Amplex Red reagent) produces resorufin, which is a highly fluorescent compound. Briefly, the test compound was dissolved in dimethyl sulfoxide (DMSO) at a concentration of 20 mM. The dose-response assessment was made by 1:3 serial dilution in DMSO, thereby creating an 8 point curve. The concentration of the upper part was controlled according to the efficacy of the compounds, followed by dilution with a reaction buffer solution to obtain a final DMSO concentration less than 1%. To each well of a 96 black well plate, human VAP-1 purified in 50 mM sodium phosphate buffer solution (pH7.4) was added. The test compounds dissolved in DMSO were incubated with the human VAP-1 enzymes at 37° C. for 30 minutes. After 30-minute incubation, each well is added with a reaction mixture containing 200 uM Amplex Red reagent prepared from 50 mM sodium phosphate buffer solution (pH 7.4), 1 mM benzylamine, and 1 U/mL HRP. Fluorescence intensity was measured at several time points during 1-2 hours using a microplate reader (Flexstation3, Molecular Devices) under the wavelength condition exciting at 544 nm and reading the emission at 590 nm. The inhibitory effect of the compounds was measured as a decrease (%) in the signal rate as compared to the control group without any inhibitor (only diluted DMSO). Data was fixed to a logistic model with four variables and IC50 value was calculated using GraphPad Prism program.
(§2) In addition, the compounds according to the present technology were evaluated in terms of activity on a recombinant human MAO-A (monoamine oxidase-A, Sigma-Aldrich) and a recombinant human MAO-B (monoamine oxidase-B, Sigma-Aldrich) by using as substrates, 0.5 mM tyramine and 1 mM benzylamine, respectively, with a method similar to the activity evaluation method for recombinant human VAP-1. The compounds according to the present technology were also evaluated in terms of activity on a recombinant human DAO (diamine oxidase, R&D systems) by using as a substrate 1 mM putrescine with a method similar to the activity evaluation method for recombinant human VAP-1.

[2] = biological target: T2, recombinant human DAO (diamine oxidase) (Homo sapiens, UniProt P19801); experiment: Activity on recombinant human DAO, method similar to the VAP-1 assay; details: substrate 1 mM putrescine; read-out: Inhibitory Activity (IC50, nM) DAO
T2 construct: purchased R&D systems
T2 sequence (P19801 20-751): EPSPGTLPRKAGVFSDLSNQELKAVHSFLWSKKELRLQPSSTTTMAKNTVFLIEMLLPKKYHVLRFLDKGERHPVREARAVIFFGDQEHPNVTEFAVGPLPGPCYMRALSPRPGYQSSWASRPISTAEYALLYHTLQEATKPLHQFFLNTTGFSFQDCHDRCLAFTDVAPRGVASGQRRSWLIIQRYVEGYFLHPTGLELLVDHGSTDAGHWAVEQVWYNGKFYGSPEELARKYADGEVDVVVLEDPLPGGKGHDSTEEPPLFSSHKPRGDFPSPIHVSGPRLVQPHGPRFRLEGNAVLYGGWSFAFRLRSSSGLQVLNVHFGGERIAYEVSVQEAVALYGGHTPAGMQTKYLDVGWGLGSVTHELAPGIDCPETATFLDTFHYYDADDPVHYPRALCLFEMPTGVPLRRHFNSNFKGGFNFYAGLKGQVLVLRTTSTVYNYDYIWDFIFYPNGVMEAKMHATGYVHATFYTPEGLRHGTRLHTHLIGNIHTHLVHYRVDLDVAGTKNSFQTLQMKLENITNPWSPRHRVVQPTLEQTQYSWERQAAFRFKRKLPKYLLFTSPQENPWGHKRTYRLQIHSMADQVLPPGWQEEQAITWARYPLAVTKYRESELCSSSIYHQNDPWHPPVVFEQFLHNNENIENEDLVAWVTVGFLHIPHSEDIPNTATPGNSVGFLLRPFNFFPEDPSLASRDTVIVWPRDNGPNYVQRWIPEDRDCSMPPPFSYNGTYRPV
Procedure: as §1, §2

[3] = biological target: T3, recombinant human VAP-1 (Homo sapiens, UniProt Q16853); experiment: Activity on recombinant human VAP-1, HRP-coupled Amplex Red hydrogen peroxide assay; details: substrate 1 mM benzylamine; compound incubated with enzyme at 37° C. for 30 minutes; pH 7.4; read-out: Inhibitory Activity (IC50, nM) human VAP-1
T3 construct: purchased R&D systems
T3 sequence (Q16853 1-763): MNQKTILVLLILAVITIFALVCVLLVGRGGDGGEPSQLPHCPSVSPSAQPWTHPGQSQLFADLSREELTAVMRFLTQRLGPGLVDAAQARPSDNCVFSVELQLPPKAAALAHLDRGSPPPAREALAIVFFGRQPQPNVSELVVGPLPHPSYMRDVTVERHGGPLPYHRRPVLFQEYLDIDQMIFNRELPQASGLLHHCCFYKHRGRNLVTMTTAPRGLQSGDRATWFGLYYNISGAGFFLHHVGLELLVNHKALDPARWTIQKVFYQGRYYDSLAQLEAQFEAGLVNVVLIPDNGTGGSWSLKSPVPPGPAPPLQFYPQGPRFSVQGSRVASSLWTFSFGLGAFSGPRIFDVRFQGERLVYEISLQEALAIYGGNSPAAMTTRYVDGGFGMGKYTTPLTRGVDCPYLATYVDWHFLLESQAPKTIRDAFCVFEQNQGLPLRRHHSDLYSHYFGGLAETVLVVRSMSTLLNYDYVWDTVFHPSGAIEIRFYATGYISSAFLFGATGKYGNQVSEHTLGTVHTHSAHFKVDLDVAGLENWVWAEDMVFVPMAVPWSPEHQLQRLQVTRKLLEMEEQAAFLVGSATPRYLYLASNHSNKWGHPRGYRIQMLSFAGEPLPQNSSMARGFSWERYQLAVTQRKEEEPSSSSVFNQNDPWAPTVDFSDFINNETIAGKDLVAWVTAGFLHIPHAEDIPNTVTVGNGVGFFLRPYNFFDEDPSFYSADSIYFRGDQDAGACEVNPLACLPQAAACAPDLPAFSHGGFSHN
Procedure: as §1

[4] = biological target: T4, recombinant human MAO-B (monoamine oxidase-B) (Homo sapiens, UniProt P27338); experiment: Activity on recombinant human MAO-B, method similar to the VAP-1 assay; details: substrate 1 mM benzylamine; read-out: Inhibitory Activity (IC50, nM) MAO-B
T4 construct: purchased Sigma-Aldrich
T4 sequence (P27338 1-520): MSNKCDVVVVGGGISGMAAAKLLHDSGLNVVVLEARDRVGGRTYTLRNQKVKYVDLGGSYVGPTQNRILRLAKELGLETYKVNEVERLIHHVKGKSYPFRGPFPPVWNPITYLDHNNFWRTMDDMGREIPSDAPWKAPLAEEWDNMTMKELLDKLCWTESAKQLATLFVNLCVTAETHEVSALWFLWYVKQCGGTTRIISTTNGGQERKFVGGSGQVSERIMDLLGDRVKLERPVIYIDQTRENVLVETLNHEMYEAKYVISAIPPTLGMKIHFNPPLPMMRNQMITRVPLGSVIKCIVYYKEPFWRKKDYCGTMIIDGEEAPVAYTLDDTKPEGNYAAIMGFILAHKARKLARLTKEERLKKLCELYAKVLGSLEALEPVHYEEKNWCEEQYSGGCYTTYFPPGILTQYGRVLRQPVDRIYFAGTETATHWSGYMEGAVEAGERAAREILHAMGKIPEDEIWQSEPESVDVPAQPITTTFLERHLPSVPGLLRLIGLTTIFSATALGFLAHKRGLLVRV
Procedure: as §1, §2

IC50 [1]	IC50 [2]	IC50 [3]	IC50 [4]	SMILES
18000 nM	3020 nM	5.7 nM	14 nM	NC/C(=C/F)Cn1ncn(Cc2ccc(Br)s2)c1=O [Example 1, 2-[(2Z)-2-(aminomethyl)-3-fluoroprop-2-en-1-yl]-4-[(5-bromothiophen-2-yl)methyl]-2,4-dihydro-3H-1,2,4-triazol-3-one]
> 100000 nM	3300 nM	5.2 nM	14 nM	NC/C(=C\F)Cn1ncn(Cc2ccc(Br)s2)c1=O [Example 2, 2-[(2E)-2-(aminomethyl)-3-fluoroprop-2-en-1-yl]-4-[(5-bromothiophen-2-yl)methyl]-2,4-dihydro-3H-1,2,4-triazol-3-one hydrochloride]
72000 nM	860 nM	4.7 nM	21 nM	NC/C(=C/F)Cn1ncn(Cc2ccc(-c3ccc(N)cc3)s2)c1=O [Example 3, 2-[(2Z)-2-(aminomethyl)-3-fluoroprop-2-en-1-yl]-4-[5-(4-aminophenyl)thiophen-2-yl]methyl-2,4-dihydro-3H-1,2,4-triazol-3-one hydrochloride]
35000 nM	9500 nM	4.6 nM	50 nM	CN(C)c1cccc(-c2ccc(Cn3cnn(C/C(=C/F)CN)c3=O)s2)c1 [Example 4, 2-[(2E)-2-(aminomethyl)-3-fluoroprop-2-en-1-yl]-4-(5-[3-(dimethylamino)phenyl]thiophen-2-ylmethyl)-2,4-dihydro-3H-1,2,4-triazol-3-one hydrochloride]
> 100000 nM		3.3 nM	680 nM	CN(C)c1ccc(-c2ccc(Cn3cnn(C/C(=C/F)CN)c3=O)s2)cc1 [Example 5, 2-[(2E)-2-(aminomethyl)-3-fluoroprop-2-en-1-yl]-4-(5-[4-(dimethylamino)phenyl]thiophen-2-ylmethyl)-2,4-dihydro-3H-1,2,4-triazol-3-one hydrochloride]
> 100000 nM	2900 nM	3.4 nM	70 nM	CN(C)c1cc(-c2ccc(Cn3cnn(C/C(=C/F)CN)c3=O)s2)ccc1F [Example 6, 2-[(2E)-2-(aminomethyl)-3-fluoroprop-2-en-1-yl]-4-(5-[3-(dimethylamino)-4-fluorophenyl]thiophen-2-ylmethyl)-2,4-dihydro-3H-1,2,4-triazol-3-one hydrochloride]
35000 nM	1000 nM	0.4 nM	11000 nM	CS(=O)(=O)Nc1ccc(-c2ccc(Cn3cnn(C/C(=C/F)CN)c3=O)s2)cc1 [Example 7, N-4-[5-(1-[(2E)-2-(aminomethyl)-3-fluoroprop-2-en-1-yl]-5-oxo-1,5-dihydro-4H-1,2,4-triazol-4-ylmethyl)thiophen-2-yl]phenylmethansulfonamide hydrochloride]
> 100000 nM	520 nM	1.2 nM	210 nM	CNS(=O)(=O)c1cccc(-c2ccc(Cn3cnn(C/C(=C/F)CN)c3=O)s2)c1 [Example 8, 3-[5-(1-[(2E)-2-(aminomethyl)-3-fluoroprop-2-en-1-yl]-5-oxo-1,5-dihydro-4H-1,2,4-triazol-4-ylmethyl)thiophen-2-yl]-N-methylbenzenesulfonamide hydrochloride]
	140 nM	2.4 nM	20000 nM	CC(C)(C)NS(=O)(=O)c1cncc(-c2ccc(Cn3cnn(C/C(=C/F)CN)c3=O)s2)c1 [Example 186, 5-[5-({1-[(2E)-2-(aminomethyl)-3-fluoroprop-2-en-1-yl]-5-oxo-1,5-dihydro-4H-1,2,4-triazol-4-yl}methyl)thiophen-2-yl]-N-tert-butylpyridin-3-sulfonamide]
	220 nM	2.2 nM	6200 nM	NC/C(=C\F)Cn1ncn(Cc2ccc(-c3ccc(S(=O)(=O)N4CCOCC4)cc3)s2)c1=O [Example 198, 2-[(2E)-2-(aminomethyl)-3-fluoroprop-2-en-1-yl]-4-({5-[4-(morpholin-4-ylsulfonyl)phenyl]thiophen-2-yl}methyl)-2,4-dihydro-3H-1,2,4-triazol-3-one]
